Reference: US20250057872A1, “INNATE IMMUNOMODULATORY EFFECT OF GINSENG BERRY POLYSACCHARIDES IN IMMUNOCOMPROMISED CONDITIONS” (GANGNEUNG-WONJU NATIONAL UNIVERSITY INDUSTRY ACADEMY …, priority 2022, published 2025)

What was measured:
[1] = system: mice immunosuppressed by administering cyclophosphamide (CY); experiment: Spleen size and spleen index in cyclophosphamide (CY)-immunosuppressed mice; type: in vivo, BALB/c mice; conditions: CY (80 mg/kg IP) mice, CY group compared to normal group, LEV 40 mg/kg, red ginseng 100 mg/kg, GBPs 50, 100, 250, 500 mg/kg BW orally; for spleen size: FIG. 1; for spleen index: FIG. 2
Protocol: Six-week-old male BALB/c mice (21-23 g) were purchased from the Central Lab, Animal Inc. (Korea) and housed under standard conditions with temperature maintained at 22±2° C. and a 12-h/12-h dark/light cycle.
(§1) In the present invention, 40 mice were randomly divided into 8 groups (n=5 per group) and variously treated according to Table 1.
(§2) Cyclophosphamide (CY) was used to induce immunosuppressive models by intraperitoneal (IP) injection at a dose of 80 mg/kg body weight (BW). […] In addition, ginseng was used with a commercially available product, and mice were sacrificed 24 hours after the last treatment of samples in Table 1.
The spleen was dissected and weighed. The spleen index was calculated according to Formula below:
Spleen index (mg/g)=spleen weight/body weight of mouse [Formula]

[2] = system: splenic lymphocytes; experiment: Splenic lymphocyte proliferation (EZ-Cytox) of splenocytes from treated mice, stimulated with Con A or LPS; type: in vivo, BALB/c mice; conditions: CY-treated group (80 mg/kg IP) compared to the normal group
Protocol: as §1, §2

[3] = system: NK cells; experiment: NK cell-mediated cytotoxicity assay, splenocytes co-cultured with YAC-1 cells; type: in vivo, BALB/c mice; conditions: CY-treated group (80 mg/kg IP); effector:target 50:1
Protocol: as §1, §2

[4] = system: immune-related genes (IL-1β, IL-2, IL-4, IL-6, TNF-α, IFN-γ, TLR-4, COX-2); parameters: species or system BALB/c mice; conditions: mouse, in vivo
Protocol: as §1, §2

| Structure (SMILES) | spleen size [1] | spleen index [1] | Con A-stimulated cell proliferation, reduction ([2]; Con A 5 μg/ml) | LPS-stimulated cell proliferation, reduction ([2]; LPS 10 μg/ml) | activity of NK cells [3] | mRNA expression levels of immune-related genes IL-2, IL-4, IL-6, TNF-α, IFN-γ, TLR-4 and COX-2 [4] |
| --- | --- | --- | --- | --- | --- | --- |
| O=P1(N(CCCl)CCCl)NCCCO1 (centres unmarked) [CY, Cyclophosphamide] | decreases in both spleen size and spleen indices | decreases in both spleen size and spleen indices | 48.1% | 57.1% | 42.9% | lower than those of the normal group |
| c1ccc([C@H]2CN3CCSC3=N2)cc1 [LEV, Levamisole] | increased spleen size and indices | increased spleen size and indices | – | – | – | – |
